What was measured:
[1] = system: acetylated histone H3; assay: Western blot of acetylated histone H3 in infected erythrocytes; format: cell-based, Plasmodium falciparum; conditions: 10 × IC50 for 4 h, trophozoites, vs DMSO
Protocol: (§1) Figure 5 Hydroxamic acid derivatives as potent in vitro PfHDAC1 inhibitors. […]. Enzyme activity was calculated by normalizing the data against the DMSO treated samples and discounting the background. Data are presented as shown above, with mean ± S.D. (n = 2). […]. Comparison of group/concentration against the DMSO control is represented as † for P < 0.0001. […]. Numbers on side of the bands represent the predicted mass (kDa) for each protein. (C,D) Band quantification of histone H3 (C) and H4 (D), respectively, normalizing their acetylated detection against their unmodified version. Differences to this value were analyzed by one way ANOVA using the Dunnett’s post correction, comparing each group against the DMSO control, as rank tests where P values are explicitly depicted.
(§2) Western Blot analysis. […]. Proteins were transferred to PVDF membranes, 5% non-fat dry milk in TBS with Tween 20 (0.1%) was used as blocking agent for 1 h at room temperature. After, incubated with the antibodies overnight at 4 °C (Acetyl Histone H3 Lys9 C5B11 Cell Signaling, Acetyl Histone H4 Lys16 E2B8W Cell Signaling, Histone H3 96C10 Cell Signaling and Histone H4 D2X4V Cell Signaling). For the analysis of protein acetylation levels, the membranes were stripped and re-probed with the corresponding anti-total protein. Mouse monoclonal anti-α-Tubulin (B512 Sigma-Aldrich) was used as loading control. Detection was performed by enhanced chemiluminescence using horseradish peroxidase-conjugated secondary antibodies (Vector Laboratories, Burlingame, CA, USA) and SuperSignal TM West Pico PLUS Chemiluminescent substrate kit (Thermo Scientific). Images were acquired using ChemiDoc TM Imaging System (BioRad Laboratories, CA, USA). Quantitative densitometry was carried out using ImageLab software (Bio-Rad Laboratories, CA, USA). The volume density of the chemiluminescent bands was calculated as an integrated optical density × mm^2 after background correction from each independent experiment (N = 3).

[2] = system: acetylated histone H4; assay: Western blot of acetylated histone H4 in infected erythrocytes; format: cell-based, Plasmodium falciparum; conditions: 10 × IC50 for 4 h, trophozoites, vs DMSO
Protocol: as §1, §2

[3] = system: P. falciparum Dd2; assay: Antiplasmodial SYBR Green I proliferation assay, P. falciparum Dd2; format: cell-based; conditions: Plasmodium falciparum, DD2; multidrug/CQ-resistant strain; read-out: IC50 P. falciparum Dd2
From the text: Antiplasmodial activity against P. falciparum 3D7 (A, C and E) and P. falciparum Dd2 (B, D, F). […] Curves were plotted using non-linear regression based on means from three independent experiments measured in triplicate. Error bars indicate standard deviation, whose values are provided in the respective table.
Plasmodium falciparum culture and antiplasmodial activity. […] Development, parasitaemia, and morphology of parasites were monitored by light microscopy of thin blood smears stained according to the Romanowsky method (Panótico Rápido staining kit; Laborclin, Pinhais, Paraná, Brazil). […] Fresh 0^+ blood was generously provided by “Hospital Novo Atibaia” (Atibaia, SP, Brazil), and approved by the ethics committee at ICB-USP. The antiplasmodial effect of all compounds was validated against P. falciparum 3D7 strain conducting SYBR Green I (Invitrogen) drug assays as previously reported[30],[46] as a modification of the original procedure. […] Parasite proliferation was measured by the DNA load via fluorescence, using 100 μL of a lysis buffer with SYBR Green I (0.02% v/v) and incubated for 1 h at room temperature in the dark. […] Focal and gain adjustment was performed using the non-treated controls (highest expected fluorescence signal). Data was acquired via the CLARIOstar (V5.20) and MARS software, manually scaled to 0–100%, and plotted using GraphPad Prism (v9.5.2 for Windows, GraphPad Software, La Jolla California USA, www.graphpad.com). Non-treated parasites, the highest solvent concentration on parasites, CQ on parasites, and the highest drug concentration in the medium were used as controls for maximal growth, solvent control, positive biological control, and native drug fluorescence, respectively.

[4] = system: Namalwa; set-up: method as in PMID 33668008; conditions: Fig. 1A; cited from earlier work
[5] = system: Jurkat; set-up: method as in PMID 33668008; conditions: Fig. 1A; cited from earlier work

COc1ccc(NC(=O)Nc2ccc(CCC(=O)NO)cc2)cc1 [Compound 7c, N-hydroxy-3-(4-(3-(4-methoxyphenyl)ureido)phenyl)propanamide]
Acetylated-H3 level (normalised to unmodified H3) [1]: two-fold increase

COc1ccc(NC(=O)Nc2ccc(/C=C/C(=O)NO)cc2)cc1 [Compound 6c, (E)-N-hydroxi-3-(4-(3-(4-methoxyphenyl)ureido)phenyl)acrylamide]
Acetylated-H4 level (normalised to unmodified H4) [2]: significant elevation

COc1ccc(NC(=O)Nc2ccc(C(=O)NO)cc2)cc1 [Compound 8c, N-hydroxy-4-(3–4(-methoxyphenyl)ureido)benzamide]
Acetylated-H4 level (normalised to unmodified H4) [2]: significant elevation
Acetylated-H3 level (normalised to unmodified H3) [1]: two-fold increase
IC50 [3]: 800 nM

O=C(Nc1ccccc1)Nc1ccc(C(=O)NO)cc1 [Compound 8a, N-hydroxy-4-(3-phenylureido)bezamide]
IC50 [4]: 530 nM
IC50 [5]: 2500 nM

From paper PMC10687260, “1,3-Diphenylureido hydroxamate as a promising scaffold for generation of potent antimalarial histone deacetylase inhibitors” (Scientific Reports, 2023)
